Source: patent US6727076B2 (priority 1995, dated 2004)
≈ marks a conversion by molar mass, not a printed value. Like-named read-outs stand apart in the source and are kept apart here.

Legend:
[1] = test system: Staphylococcus aureus (ATCC #29213); experiment: microbe, parasite or virus in culture; format: cell-based
[2] = test system: Escherichia coli (ATCC#25922); experiment: microbe, parasite or virus in culture; format: cell-based
E. coli MG1655 = format: cell-based
E. coli = format: cell-based
[3] = test system: E. coli 287 (ATCC #11775); format: cell-based
T. harzianum DAOM 190830 = format: cell-based, Trichoderma harzianum
[4] = test system: E. coli strain 14445 (MG1655 himA); format: cell-based
S. typhimurium hisF645 = format: cell-based, Salmonella typhimurium
[5] = test system: E. coli strain 14444 (MG1655 xylA); format: cell-based
[6] = Staphylococcus aureus, ATCC29213, 18 h
[7] = Escherichia coli, ATCC25922, 18 h

SMILES: CC1(C)S[C@@H]2[C@H](NC(=O)[C@H](N)c3ccccc3)C(=O)N2[C@H]1C(=O)O [Ampicillin, ampicillin]
- MIC [1]: 1 to 2 µg/mL
- MIC [1, 6]: 1 to 4 µg/mL (≈ 2.86 to 11.4 µM)
- MIC [2]: 2 to 4 µg/mL
- MIC [2, 7]: 1 to 2 µg/mL (≈ 2.86 to 5.72 µM)

SMILES: C[C@@H](N)C(=O)O [D-alanine]
- suitability as nitrogen source (growth, purple color) (E. coli MG1655): positive
- use as carbon source (E. coli): can use
- carbon source utilization result [3]: positive

SMILES: N[C@H](CC(=O)O)C(=O)O [D-aspartic acid]
- suitability as nitrogen source (growth, purple color) (E. coli MG1655): not suitable
- use as carbon source (E. coli): can use

SMILES: N[C@H](CO)C(=O)O [D-serine]
- suitability as nitrogen source (growth, purple color) (E. coli MG1655): not suitable
- use as carbon source (E. coli): can use
- carbon source utilization result [3]: positive

SMILES: C[C@H](O)[C@@H](N)C(=O)O [D-threonine]
- use as carbon source (E. coli): can use

SMILES: NC[C@H]1O[C@H](O[C@H]2[C@H](O)[C@@H](O[C@H]3O[C@H](CO)[C@@H](O)[C@H](N)[C@H]3O)[C@H](N)C[C@@H]2N)[C@H](O)[C@@H](O)[C@@H]1O [Kanamycin, kanamycin]
- MIC [1, 6]: 16 to 32 µg/mL (≈ 33 to 66 µM)
- MIC [2]: 8 to 16 µg/mL
- MIC [2, 7]: 16 to 32 µg/mL (≈ 33 to 66 µM)

SMILES: C[C@H](N)C(=O)O [L-alanine]
- suitability as nitrogen source (growth, purple color) (E. coli MG1655): not suitable
- use as carbon source (E. coli): can use
- carbon source utilization result (T. harzianum DAOM 190830): positive
- carbon source utilization result [3]: positive

SMILES: NC(=O)C[C@H](N)C(=O)O [L-asparagine]
- suitability as nitrogen source (growth, purple color) (E. coli MG1655): positive
- use as carbon source (E. coli): can use
- carbon source utilization result (T. harzianum DAOM 190830): positive
- carbon source utilization result [3]: positive

SMILES: N[C@@H](CC(=O)O)C(=O)O [L-aspartic acid]
- suitability as nitrogen source (growth, purple color) (E. coli MG1655): positive
- use as carbon source (E. coli): can use
- carbon source utilization result [3]: positive

SMILES: N[C@@H](CCC(=O)O)C(=O)O [L-glutamic acid]
- suitability as nitrogen source (growth, purple color) (E. coli MG1655): positive
- carbon source utilization, in words [4]: negative
- use as carbon source (E. coli): can use
- carbon source utilization result (T. harzianum DAOM 190830): positive

SMILES: NC(=O)CC[C@H](N)C(=O)O [L-glutamine]
- suitability as nitrogen source (growth, purple color) (E. coli MG1655): positive
- use as carbon source (E. coli): can use

SMILES: N[C@@H](Cc1c[nH]cn1)C(=O)O [L-histidine]
- suitability as nitrogen source (growth, purple color) (E. coli MG1655): not suitable
- growth stimulation by supplement (well color) (S. typhimurium hisF645): turned purple
- carbon source utilization result [3]: negative

SMILES: O=C(O)[C@@H]1CCCN1 [L-proline]
- suitability as nitrogen source (growth, purple color) (E. coli MG1655): positive
- carbon source utilization, in words [5]: negative
- use as carbon source (E. coli): can use
- carbon source utilization result (T. harzianum DAOM 190830): positive

SMILES: N[C@@H](CO)C(=O)O [L-serine]
- suitability as nitrogen source (growth, purple color) (E. coli MG1655): not suitable
- use as carbon source (E. coli): can use
- carbon source utilization result (T. harzianum DAOM 190830): positive
- carbon source utilization result [3]: positive

SMILES: C[C@@H](O)[C@H](N)C(=O)O [L-threonine]
- suitability as nitrogen source (growth, purple color) (E. coli MG1655): not suitable
- carbon source utilization, in words [5]: negative
- carbon source utilization, in words [4]: negative
- use as carbon source (E. coli): can use

SMILES: CN(C)[C@@H]1C(O)=C(C(N)=O)C(=O)[C@@]2(O)C(O)=C3C(=O)c4c(O)cccc4[C@@](C)(O)[C@H]3C[C@@H]12 [Tetracycline, tetracycline]
- MIC [1]: 0.25 to 1 µg/mL
- MIC [1, 6]: 0.25 to 2 µg/mL (≈ 0.563 to 4.5 µM)
- MIC [2, 7]: 0.5 to 1 µg/mL (≈ 1.13 to 2.25 µM)
